Laboratory results published in article PMC11178805, “Ligand-based design of [^18F]OXD-2314 for PET imaging in non-Alzheimer’s disease tauopathies” (Nature Communications, 2024).

Assay: Dynamic PET imaging with [^18F]OXD-2314 in baboons
Format: in vivo
Conditions: for Cerebellum SUV / Cortex SUV / Striatum SUV / Whole Brain SUV: PET time-activity curve, Figure S18; for whole brain peak uptake: n = 1
Protocol: Dynamic PET imaging was performed in a rhesus macaque (macaca mulatta) monkey following the injection of [^18F]OXD-2314 at baseline (104.9 MBq, n = 1) and was repeated in a second [^18F]OXD-2314 study (115.8 MBq, n = 1) where a displacing dose of unlabeled OXD-2314 (0.5 mg/kg) was administered 10 min after [^18F]OXD-2314 injection to verify the absence of specific binding in NHP brain. Venous blood samples were drawn to characterize the metabolic fate of [^18F]OXD-2314 in the macaque. Dynamic [^18F]OXD-2314 PET imaging was also performed in a male (106.6 MBq, n = 1) and a female (115.8 MBq, n = 1) baboon (papio anubis), and venous blood samples were drawn in both baboons to characterize potential effects of sex on radiometabolism. Bilateral regions of interest were defined on 5–8 contiguous axial image planes for the lateral temporal cerebral cortex, cerebellum, striatum, and whole brain, which were used to sample dynamic [^18F]OXD-2314 PET images to determine the time-varying radioactivity concentration expressed in SUV units. [^18F]OXD-2314 readily entered macaque brain (whole brain peak ~2.2 SUV at ~2 min) and distributed uniformly throughout cortical and subcortical grey matter regions (Fig. 5A). […] Radiometabolite analysis of macaque venous blood identified only one, polar radiometabolite, which increased from 37% at 10 min to 77% at 90 min post-injection and was not likely brain penetrant (Figs. S19, S20).
The rate of uptake and clearance of [^18F]OXD-2314 in the brains of a male and a female baboon were compared (Fig. 6A). Initial whole brain uptake was rapid in both baboons, with peak uptake achieved in ~2 min with an SUV of ~2.8 in the male baboon and an SUV of ~1.9 in the female baboon. […] It is not known whether the higher initial brain uptake of [^18F]OXD-2314 observed in a male baboon is due to sex differences, normal physiologic variability, or the additional variability introduced by the effects of anesthesia. No evidence of elevated uptake or retention in the baboon striatum following [^18F]OXD-2314 injection was observed (Fig. S16), a region where high levels of PSP and CBD pathology are expected. Therefore, the normal brain retention patterns of [^18F]OXD-2314 are unlikely to confound the detection of specific signal from PSP and CBD pathology in human subjects.
NHP imaging studies in a male (13 kg) macaca mulata monkey and male (25.7 kg) and female (14.2 kg) papio anubis baboons were carried out in accordance with the guidelines set forth by the Institutional Animal Care and Use Committee at the University of Pittsburgh. Additional details regarding the maintenance of an active environmental enrichment program for the housed NHPs are described in Supplemental Information. Dynamic [^18F]OXD-2314 PET imaging of the brains of the isoflurane anesthetized NHPs was performed using a Siemens Biograph mCT Flow 64-4 R PET/CT scanner ([…], maximum intrinsic spatial resolution of 4.3 mm FWHM[53]. Following a low-dose CT scan for attenuation correction of PET emission data, [^18F]OXD-2314 was injected intravenously and emission data were acquired in list-mode for a period of 90 min. Emission data were binned into a dynamic series of 32 frames (20 sec-10 min) and reconstructed using filtered back projection with Fourier rebinning (FORE + FBP) with standard corrections applied that included attenuation, scatter, electronics dead-time, and physical decay.

For `CO[C@H]1CCCN(c2ccc(-c3cc4cc(O)ccc4[nH]3)c([18F])n2)C1` [[^18F]OXD-2314], which “Cerebellum SUV” value (Time 2.75 min) is on record?
Its value is 3.523 SUV.

And the “Cortex SUV” value (Time 2.75 min)?
The value was 3.036 SUV.

And the “Striatum SUV” value (Time 2.75 min)?
Its value is 3.616 SUV.

And the “Whole Brain SUV” value (Time 2.75 min)?
The value was 2.828 SUV.

What about the “Cerebellum SUV” value (Time 3.25 min) of the same molecule?
The value was 3.2566 SUV.

And the “Cortex SUV” value (Time 3.25 min)?
Its value is 2.891 SUV.

And the “Striatum SUV” value (Time 3.25 min)?
Its value is 3.337 SUV.

And the “Whole Brain SUV” value (Time 3.25 min)?
The value was 2.7269 SUV.

And the “Cerebellum SUV” value (Time 3.75 min)?
Its value is 3.5333 SUV.

And the “Cortex SUV” value (Time 3.75 min)?
Its value is 2.848 SUV.

What about the “Striatum SUV” value (Time 3.75 min) of the same molecule?
Its value is 3.315 SUV.

What about the “Whole Brain SUV” value (Time 3.75 min) of the same molecule?
The value was 2.707 SUV.

What about the “Cerebellum SUV” value (Time 4.5 min) of the same molecule?
Its value is 3.317 SUV.

What about the “Cortex SUV” value (Time 4.5 min) of the same molecule?
Its value is 2.817 SUV.

What about the “Striatum SUV” value (Time 4.5 min) of the same molecule?
The value was 3.072 SUV.

What about the “Whole Brain SUV” value (Time 4.5 min) of the same molecule?
Its value is 2.623 SUV.

What about the “Cerebellum SUV” value (Time 5.5 min) of the same molecule?
The value was 2.973 SUV.

What about the “Cortex SUV” value (Time 5.5 min) of the same molecule?
The value was 2.612 SUV.

And the “Striatum SUV” value (Time 5.5 min)?
Its value is 3.02 SUV.

And the “Whole Brain SUV” value (Time 5.5 min)?
Its value is 2.516 SUV.

What about the “Cerebellum SUV” value (Time 6.5 min) of the same molecule?
The value was 2.884 SUV.

What about the “Cortex SUV” value (Time 6.5 min) of the same molecule?
The value was 2.534 SUV.

What about the “Striatum SUV” value (Time 6.5 min) of the same molecule?
The value was 2.784 SUV.

And the “Whole Brain SUV” value (Time 6.5 min)?
Its value is 2.429 SUV.

And the “Cerebellum SUV” value (Time 8 min)?
The value was 2.424 SUV.

And the “Cortex SUV” value (Time 8 min)?
The value was 2.368 SUV.

What about the “Striatum SUV” value (Time 8 min) of the same molecule?
Its value is 2.423 SUV.

And the “Whole Brain SUV” value (Time 8 min)?
Its value is 2.257 SUV.

What about the “Cerebellum SUV” value (Time 10 min) of the same molecule?
The value was 2.417 SUV.

What about the “Cortex SUV” value (Time 10 min) of the same molecule?
Its value is 2.197 SUV.

And the “Striatum SUV” value (Time 10 min)?
The value was 2.581 SUV.

And the “Whole Brain SUV” value (Time 10 min)?
The value was 2.094 SUV.

And the “Cerebellum SUV” value (Time 12 min)?
The value was 2.068 SUV.

And the “Cortex SUV” value (Time 12 min)?
The value was 2.057 SUV.

And the “Striatum SUV” value (Time 12 min)?
The value was 2.198 SUV.

What about the “Whole Brain SUV” value (Time 12 min) of the same molecule?
Its value is 1.998 SUV.

And the “Cerebellum SUV” value (Time 14 min)?
Its value is 2.062 SUV.

What about the “Cortex SUV” value (Time 14 min) of the same molecule?
The value was 1.889 SUV.

And the “Striatum SUV” value (Time 14 min)?
Its value is 1.943 SUV.

What about the “Whole Brain SUV” value (Time 14 min) of the same molecule?
The value was 1.8928 SUV.

What about the “Cerebellum SUV” value (Time 17.5 min) of the same molecule?
Its value is 1.827 SUV.

What about the “Cortex SUV” value (Time 17.5 min) of the same molecule?
Its value is 1.768 SUV.

What about the “Striatum SUV” value (Time 17.5 min) of the same molecule?
The value was 1.893 SUV.

And the “Whole Brain SUV” value (Time 17.5 min)?
The value was 1.748 SUV.

What about the “Cerebellum SUV” value (Time 22.5 min) of the same molecule?
The value was 1.519 SUV.

What about the “Cortex SUV” value (Time 22.5 min) of the same molecule?
The value was 1.5637 SUV.

And the “Striatum SUV” value (Time 22.5 min)?
Its value is 1.618 SUV.

And the “Whole Brain SUV” value (Time 22.5 min)?
The value was 1.572 SUV.

And the “Cerebellum SUV” value (Time 27.5 min)?
Its value is 1.345 SUV.

And the “Cortex SUV” value (Time 27.5 min)?
Its value is 1.403 SUV.

And the “Striatum SUV” value (Time 27.5 min)?
The value was 1.574 SUV.

And the “Whole Brain SUV” value (Time 27.5 min)?
The value was 1.421 SUV.

What about the “Cerebellum SUV” value (Time 32.5 min) of the same molecule?
The value was 1.261 SUV.

And the “Cortex SUV” value (Time 32.5 min)?
The value was 1.245 SUV.

What about the “Striatum SUV” value (Time 32.5 min) of the same molecule?
The value was 1.235 SUV.

And the “Whole Brain SUV” value (Time 32.5 min)?
Its value is 1.295 SUV.

What about the “Cerebellum SUV” value (Time 37.5 min) of the same molecule?
The value was 1.135 SUV.

And the “Cortex SUV” value (Time 37.5 min)?
The value was 1.17 SUV.

What about the “Striatum SUV” value (Time 37.5 min) of the same molecule?
The value was 1.248 SUV.

What about the “Whole Brain SUV” value (Time 37.5 min) of the same molecule?
Its value is 1.205 SUV.

And the “Cerebellum SUV” value (Time 42.5 min)?
Its value is 1.059 SUV.

And the “Cortex SUV” value (Time 42.5 min)?
Its value is 1.067 SUV.

What about the “Striatum SUV” value (Time 42.5 min) of the same molecule?
The value was 1.112 SUV.

And the “Whole Brain SUV” value (Time 42.5 min)?
Its value is 1.107 SUV.

And the “Cerebellum SUV” value (Time 47.5 min)?
Its value is 1.003 SUV.

And the “Cortex SUV” value (Time 47.5 min)?
The value was 0.9766 SUV.

What about the “Striatum SUV” value (Time 47.5 min) of the same molecule?
Its value is 0.9755 SUV.

What about the “Whole Brain SUV” value (Time 47.5 min) of the same molecule?
The value was 1.028 SUV.

What about the “Cerebellum SUV” value (Time 52.5 min) of the same molecule?
The value was 0.8116 SUV.

What about the “Cortex SUV” value (Time 52.5 min) of the same molecule?
The value was 0.9384 SUV.

What about the “Striatum SUV” value (Time 52.5 min) of the same molecule?
The value was 0.9527 SUV.

And the “Whole Brain SUV” value (Time 52.5 min)?
The value was 0.9734 SUV.

And the “Cerebellum SUV” value (Time 57.5 min)?
The value was 0.7605 SUV.

What about the “Cortex SUV” value (Time 57.5 min) of the same molecule?
Its value is 0.8664 SUV.

And the “Striatum SUV” value (Time 57.5 min)?
The value was 0.8933 SUV.

And the “Whole Brain SUV” value (Time 57.5 min)?
The value was 0.9139 SUV.

What about the “Cerebellum SUV” value (Time 62.5 min) of the same molecule?
Its value is 0.7211 SUV.

And the “Cortex SUV” value (Time 62.5 min)?
Its value is 0.8233 SUV.

And the “Striatum SUV” value (Time 62.5 min)?
The value was 0.8081 SUV.

What about the “Whole Brain SUV” value (Time 62.5 min) of the same molecule?
Its value is 0.8807 SUV.

What about the “Cerebellum SUV” value (Time 67.5 min) of the same molecule?
The value was 0.724 SUV.

What about the “Cortex SUV” value (Time 67.5 min) of the same molecule?
The value was 0.803 SUV.

And the “Striatum SUV” value (Time 67.5 min)?
Its value is 0.7461 SUV.

What about the “Whole Brain SUV” value (Time 67.5 min) of the same molecule?
The value was 0.8223 SUV.

What about the “Cerebellum SUV” value (Time 72.5 min) of the same molecule?
Its value is 0.6837 SUV.

And the “Cortex SUV” value (Time 72.5 min)?
The value was 0.7452 SUV.

And the “Striatum SUV” value (Time 72.5 min)?
The value was 0.6547 SUV.

What about the “Whole Brain SUV” value (Time 72.5 min) of the same molecule?
Its value is 0.7875 SUV.

What about the “Cerebellum SUV” value (Time 77.5 min) of the same molecule?
The value was 0.6351 SUV.

And the “Cortex SUV” value (Time 77.5 min)?
The value was 0.7071 SUV.

And the “Striatum SUV” value (Time 77.5 min)?
Its value is 0.5968 SUV.

What about the “Whole Brain SUV” value (Time 77.5 min) of the same molecule?
Its value is 0.7547 SUV.

What about the “Cerebellum SUV” value (Time 82.5 min) of the same molecule?
The value was 0.6873 SUV.

And the “Cortex SUV” value (Time 82.5 min)?
The value was 0.6833 SUV.

And the “Striatum SUV” value (Time 82.5 min)?
Its value is 0.7378 SUV.

And the “Whole Brain SUV” value (Time 82.5 min)?
Its value is 0.7187 SUV.

What about the “Cerebellum SUV” value (Time 87.5 min) of the same molecule?
The value was 0.5841 SUV.

And the “Cortex SUV” value (Time 87.5 min)?
Its value is 0.6805 SUV.

And the “Striatum SUV” value (Time 87.5 min)?
Its value is 0.6765 SUV.

And the “Whole Brain SUV” value (Time 87.5 min)?
Its value is 0.6934 SUV.

And the “time to peak whole brain uptake” value (both baboons)?
The value was ~ 2 min.

What about the “2:90 min SUV ratio” value (female baboon) of the same molecule?
The value was ~ 3.6.

What about the “whole brain peak uptake” value (female baboon) of the same molecule?
Its value is ~ 1.9 SUV.

And the “2:90 min SUV ratio” value (male baboon)?
Its value is ~ 3.7.

What about the “whole brain peak uptake” value (male baboon) of the same molecule?
The value was ~ 2.8 SUV.
